Laboratory results published in PMC11352108, “Anti-Biofilm and Anti-Inflammatory Properties of the Truncated Analogs of the Scorpion Venom-Derived Peptide IsCT against Pseudomonas aeruginosa” (Antibiotics, 2024).
Values joined by “and” are separate entries in the source; they are usually repeats but may differ in a detail not shown here. Equal values may be shown once. Where no end group is shown, it is not given here.

Assays:
[1] = tested on: sheep red blood cells; assay: Hemolytic assay; format: cell-based
Experimental: A hemolytic assay was carried out according to the previously described method using commercially sourced sheep red blood cells (Professional Nanomed Company Limited, Bangkok, Thailand). One hundred microliters of a 2% sheep red blood cell suspension prepared in phosphate-buffered saline (PBS) pH 7.4. was incubated for 1 h at 37 °C with 100 μL of the studied peptides (final concentration of 150 µM). After centrifugation at 1000× g for 5 min, 100 μL of supernatant was transferred to new 96-well plates, and the release of hemoglobin was monitored, measuring an optical density (OD) at 405 nm using a BioTek Synergy HT microplate reader. Red blood cells treated with PBS pH 7.4 were used as a negative control, while those treated with 1% Triton X-100 were used as a positive control. The percent hemolysis was calculated as follows:(1) % Hemolysis=OD405 nm of the test peptide−OD405 nm of negative control/OD405 nm of positive control−OD405 nm of negative control × 100

[2] = tested on: P. aeruginosa PAO1 biofilms; assay: Biofilm susceptibility assay (crystal violet); format: cell-based, Pseudomonas aeruginosa; settings: 150 μM, 24 h, 37 °C, 10^6 CFU/mL, OD 550 nm, compared with untreated control
Experimental: The effect of the truncated IsCT analogs on biofilms of P. aeruginosa was assessed using a method that was described previously. Briefly, 100 μL of the test peptides (final concentration, 150 μM) was added to each well of a 96-well microtiter plate (Nunc^TM, Roskilde, Denmark). Then, an aliquot of P. aeruginosa PAO1 culture was added to each well to obtain a final concentration of 10^6 CFU/mL. The bacterial culture alone was included as an untreated control. Following a 24-h incubation at 37 °C, unattached planktonic cells were discarded, and the wells were carefully washed twice with PBS with a pH of 7.4. Thereafter, biofilm biomasses were quantified by 0.1% crystal violet staining. After excess stains were discarded, the wells were washed with PBS pH 7.4 and left to air dry for 2 h at 37 °C. The biofilm biomass was subsequently dissolved by the addition of 30% acetic acid, and the plates were spectrophotometrically read at 550 nm using a BioTek Synergy HT microplate reader.

[3] = tested on: P. aeruginosa PAO1; assay: Growth curve assay; format: cell-based, Pseudomonas aeruginosa; settings: 150 μM; for OD600nm, Mean / OD600nm, Exp.1 / OD600nm, Exp.2: 37 °C, 150 rpm; for OD600nm, Mean: mean of 2 experiments; for OD600nm, Exp.1: replicate Exp.1; for OD600nm, Exp.2: replicate Exp.2
Experimental: The effect of the IsCT-Δ6-8 peptide on the growth of P. aeruginosa was assessed as previously described. A culture of P. aeruginosa PAO1 was grown at a concentration of 10^6 CFU/ mL in the presence or absence of the IsCT-Δ6-8 peptide (final concentration, 150 µM) at 37 °C, with agitation at 150 rpm. The OD600 nm was then recorded at 0, 6, 12, 18, and 24 h.

[4] = tested on: IL-6 production in P. aeruginosa LPS-stimulated RAW 264.7 macrophages; assay: IL-6 measurement (sandwich ELISA); format: cell-based, murine; settings: 48 h; for IL-6 (pg/mL), Exp.1: replicate Exp.1; for IL-6 (pg/mL), Mean: mean of 2 experiments, LPS alone 4081.029; for IL-6 (pg/mL), Exp.2: replicate Exp.2
Experimental: (§1) RAW 264.7 cells (3.5 × 10^5) were stimulated with P. aeruginosa lipopolysaccharide (100 ng/mL; Sigma, St. Louis, MO, USA) in the presence or absence of the IsCT-Δ6-8 peptide (37.5–150 μM, final concentration). After incubation at 37 °C under 5% CO2 for 48 h, supernatants were collected. The levels of nitrite (a stable breakdown of NO) were then determined using the Griess reagent system (Promega, Madison, Wisconsin, USA). The IL-6 levels in culture supernatant were quantified with the BioLegend ELISA MAXTM Deluxe Set according to the manufacturer’s protocols.

[5] = tested on: pyocyanin production by P. aeruginosa PAO1; assay: Pyocyanin assay (chloroform extraction); format: cell-based, Pseudomonas aeruginosa; settings: 24 h, 37 °C; for Pyocyanin production (%control), Exp.1: replicate Exp.1; for Pyocyanin production (%control), Mean: mean of Exp.1-3; for Pyocyanin production (%control), Exp.2: replicate Exp.2; for Pyocyanin production (%control), Exp.3: replicate Exp.3
Experimental: The effect of IsCT-Δ6-8 peptide on the production of pyocyanin pigments produced by P. aeruginosa PAO1 was assessed using the protocol described previously. In brief, 750 μL of P. aeruginosa culture (10^8 CFU/mL, final concentration) and 250 μL of the test peptide prepared in LB broth (final concentrations ranged from 37.5 μM to 150 μM) were incubated at 37 °C for 24 h with agitation (150 rpm). A P. aeruginosa culture without the IsCT-Δ6-8 peptide served as an untreated control. Thereafter, supernatants were collected by centrifugation at 3900× g for 10 min, and pyocyanin pigment was extracted twice using chloroform/0.2 N HCl. Centrifugation was performed at 3900× g for 10 min before the pink-colored solution was collected, and the absorbance was measured at […].

[6] = tested on: NO production in P. aeruginosa LPS-stimulated RAW 264.7 macrophages; assay: Nitric oxide measurement (Griess reagent); format: cell-based, murine; settings: 48 h; for Nitrite (µM), Exp.1: replicate Exp.1; for Nitrite (µM), Mean: mean of 2 experiments, LPS alone 24.5278; for Nitrite (µM), Exp.2: replicate Exp.2
Experimental: as §1

[7] = peptide 37.5 µM with LPS 100 ng/mL, 37 °C
[8] = peptide 37.5 µM with LPS 100 ng/mL
[9] = peptide 75 µM with LPS 100 ng/mL
[10] = peptide 150 µM with LPS 100 ng/mL

**Q.** Which “Hemolytic activity (in words)” value ([1]; sheep erythrocytes, concentrations as high as 150 μM) does the source give for ILGKIIKSLF [IsCT-Δ6-8] here?
**A.** The value was “decreased hemolytic activity”.

**Q.** And the “% Hemolysis, Exp.1” value ([1]; sheep red blood cells, 1 h, 37 °C, peptides 150 μM (Triton X-100 1%), replicate Exp.1)?
**A.** The value was 1.56%.

**Q.** What about the “% Hemolysis, Exp.2” value ([1]; sheep red blood cells, 1 h, 37 °C, peptides 150 μM (Triton X-100 1%), replicate Exp.2) of the same sequence?
**A.** The value was 0.72%.

**Q.** And the “% Hemolysis, Exp.3” value ([1]; sheep red blood cells, 1 h, 37 °C, peptides 150 μM (Triton X-100 1%), replicate Exp.3)?
**A.** The value was 3.45%.

**Q.** And the “Decrease in P. aeruginosa biofilm biomass” value [2]?
**A.** The value was 33.12% and 33%.

**Q.** What about the “OD600nm, Mean” value ([3]; 0 h) of the same sequence?
**A.** Its value is 0.0000.

**Q.** What about the “OD600nm, Exp.1” value ([3]; 0 h) of the same sequence?
**A.** Its value is 0.0000.

**Q.** What about the “OD600nm, Exp.2” value ([3]; 0 h) of the same sequence?
**A.** The value was 0.0000.

**Q.** And the “OD600nm, Mean” value ([3]; 6 h, untreated control 0.3954)?
**A.** Its value is 0.2100.

**Q.** And the “OD600nm, Exp.1” value ([3]; 6 h, untreated control 0.3955)?
**A.** The value was 0.2055.

**Q.** What about the “OD600nm, Exp.2” value ([3]; 6 h, untreated control 0.3953) of the same sequence?
**A.** Its value is 0.2145.

**Q.** What about the “OD600nm, Mean” value ([3]; 12 h, untreated control 0.5425) of the same sequence?
**A.** The value was 0.4723.

**Q.** And the “OD600nm, Exp.1” value ([3]; 12 h, untreated control 0.5353)?
**A.** Its value is 0.4765.

**Q.** What about the “OD600nm, Exp.2” value ([3]; 12 h, untreated control 0.5498) of the same sequence?
**A.** Its value is 0.4680.

**Q.** What about the “OD600nm, Mean” value ([3]; 18 h, untreated control 0.6067) of the same sequence?
**A.** Its value is 0.5898.

**Q.** And the “OD600nm, Exp.1” value ([3]; 18 h, untreated control 0.6213)?
**A.** Its value is 0.5830.

**Q.** What about the “OD600nm, Exp.2” value ([3]; 18 h, untreated control 0.5922) of the same sequence?
**A.** Its value is 0.5965.

**Q.** What about the “OD600nm, Mean” value ([3]; 24 h, untreated control 0.6209) of the same sequence?
**A.** The value was 0.6033.

**Q.** What about the “OD600nm, Exp.1” value ([3]; 24 h, untreated control 0.6330) of the same sequence?
**A.** The value was 0.5450.

**Q.** What about the “OD600nm, Exp.2” value ([3]; 24 h, untreated control 0.6088) of the same sequence?
**A.** The value was 0.6615.

**Q.** What about the “Growth of P. aeruginosa at early time points (in words)” value ([3]; 6 h and 12 h, compared to untreated control culture) of the same sequence?
**A.** Its value is “slow growth rate”.

**Q.** What about the “Growth of P. aeruginosa after prolonged exposure (in words)” value ([3]; 18 h and 24 h, versus untreated control (p > 0.05)) of the same sequence?
**A.** Its value is “comparable to that of the untreated control culture”.

**Q.** And the “Effect on LPS-induced IL-6 elevation (in words)” value ([4]; 37.5–150 μM, especially at 150 μM (p < 0.05 vs LPS-stimulated))?
**A.** The value was “reduced”.

**Q.** And the “IL-6 (pg/mL), Exp.1” value [4, 7]?
**A.** The value was 4036.912 pg/mL.

**Q.** And the “IL-6 (pg/mL), Mean” value [4, 8]?
**A.** Its value is 3742.794 pg/mL.

**Q.** And the “IL-6 (pg/mL), Exp.2” value [4, 8]?
**A.** The value was 3448.676 pg/mL.

**Q.** And the “IL-6 (pg/mL), Mean” value [4, 9]?
**A.** The value was 3664.363 pg/mL.

**Q.** And the “IL-6 (pg/mL), Exp.1” value [4, 9]?
**A.** The value was 3953.578 pg/mL.

**Q.** What about the “IL-6 (pg/mL), Exp.2” value [4, 9] of the same sequence?
**A.** Its value is 3375.147 pg/mL.

**Q.** And the “IL-6 (pg/mL), Mean” value [4, 10]?
**A.** Its value is 3304.069 pg/mL.

**Q.** And the “IL-6 (pg/mL), Exp.1” value [4, 10]?
**A.** The value was 3514.853 pg/mL.

**Q.** What about the “IL-6 (pg/mL), Exp.2” value [4, 10] of the same sequence?
**A.** The value was 3093.284 pg/mL.

**Q.** And the “Pyocyanin production (%control), Exp.1” value ([5]; 37.5 µM, 10^8 CFU/mL, LB broth, absorbance 380 nm)?
**A.** Its value is 124.961 %control.

**Q.** And the “Pyocyanin production (%control), Mean” value ([5]; 37.5 µM)?
**A.** Its value is 82.972 %control.

**Q.** What about the “Pyocyanin production (%control), Exp.2” value ([5]; 37.5 µM) of the same sequence?
**A.** The value was 54.723 %control.

**Q.** What about the “Pyocyanin production (%control), Exp.3” value ([5]; 37.5 µM) of the same sequence?
**A.** Its value is 69.231 %control.

**Q.** What about the “Pyocyanin production (%control), Mean” value ([5]; 75 µM) of the same sequence?
**A.** The value was 69.677 %control.

**Q.** And the “Pyocyanin production (%control), Exp.1” value ([5]; 75 µM)?
**A.** Its value is 120.493 %control.

**Q.** And the “Pyocyanin production (%control), Exp.2” value ([5]; 75 µM)?
**A.** Its value is 42.094 %control.

**Q.** And the “Pyocyanin production (%control), Exp.3” value ([5]; 75 µM)?
**A.** The value was 46.444 %control.

**Q.** And the “Pyocyanin production (%control), Mean” value ([5]; 150 µM)?
**A.** The value was 48.905 %control.

**Q.** And the “Pyocyanin production (%control), Exp.1” value ([5]; 150 µM)?
**A.** The value was 76.348 %control.

**Q.** And the “Pyocyanin production (%control), Exp.2” value ([5]; 150 µM)?
**A.** The value was 36.550 %control.

**Q.** And the “Pyocyanin production (%control), Exp.3” value ([5]; 150 µM)?
**A.** The value was 33.817 %control.

**Q.** What about the “Effect on LPS-induced nitrite increase (in words)” value ([6]; 37.5–150 μM, in particular at 150 μM (p < 0.05 vs LPS-stimulated)) of the same sequence?
**A.** The value was “reduced”.

**Q.** And the “Nitrite (µM), Exp.1” value [6, 7]?
**A.** The value was 24.3889 µM.

**Q.** And the “Nitrite (µM), Mean” value [6, 8]?
**A.** Its value is 24.2500 µM.

**Q.** And the “Nitrite (µM), Exp.2” value [6, 8]?
**A.** The value was 24.1111 µM.

**Q.** And the “Nitrite (µM), Mean” value [6, 9]?
**A.** The value was 23.5556 µM.

**Q.** What about the “Nitrite (µM), Exp.1” value [6, 9] of the same sequence?
**A.** The value was 23.8889 µM.

**Q.** What about the “Nitrite (µM), Exp.2” value [6, 9] of the same sequence?
**A.** Its value is 23.2222 µM.

**Q.** What about the “Nitrite (µM), Mean” value [6, 10] of the same sequence?
**A.** The value was 21.0833 µM.

**Q.** And the “Nitrite (µM), Exp.1” value [6, 10]?
**A.** Its value is 21.5000 µM.

**Q.** What about the “Nitrite (µM), Exp.2” value [6, 10] of the same sequence?
**A.** Its value is 20.6667 µM.
